We go through 15 molecules from ChEMBL document CHEMBL1140563, “Redefining the structure-activity relationships of 2,6-methano-3-benzazocines. 5. Opioid receptor binding properties of N-((4'-phenyl)-phenethyl) analogues of 8-CAC” (Bioorg Med Chem Lett, 2007).

The source made the active and inactive calls. The rule behind the calls is not given here.

Assay [1] deals with T1, Delta-type opioid receptor (Homo sapiens, UniProt P41143). The assay can be described thus: Agonist activity at human delta opioid receptor expressed in CHO cell membrane by [35S]GTP-gamma-S binding assay. It is filed as functional, cell membranes. For orientation: GTPγS is a poorly hydrolysed GTP analogue; its binding reports G protein activation.
The target in assay [2] is T1, Delta-type opioid receptor. The assay can be described thus: Antagonist activity at human delta opioid receptor expressed in CHO cell membrane assessed as inhibition of SNC80 induced [35S]GTPgammaS binding. It is filed as functional, cell membranes.
For assay [3], the target named is T2, Kappa-type opioid receptor (Homo sapiens, UniProt P41145). The assay can be described thus: Antagonist activity at human kappa opioid receptor expressed in CHO cell membrane assessed as inhibition of U50,488 induced [35S]GTPgammaS binding. It is filed as functional, cell membranes.
The target of assay [4] is T3, Mu-type opioid receptor (Homo sapiens, UniProt P35372). The assay can be described thus: Agonist activity at human mu opioid receptor expressed in CHO cell membrane by [35S]GTPgammaS binding assay. It counts as functional, cell membranes.
For assay [5], the target named is T2, Kappa-type opioid receptor. The assay can be described thus: Agonist activity at human kappa opioid receptor expressed in CHO cell membrane by [35S]GTP-gamma-S binding assay. It is filed as functional, cell membranes.
Assay [6] addresses T3, Mu-type opioid receptor. The assay can be described thus: Antagonist activity at human mu opioid receptor expressed in CHO cell membrane assessed as inhibition of DAMGO induced [35S]GTP-gamma-S binding. It is filed as functional, cell membranes.
The target of assay [7] is T3, Mu-type opioid receptor. The assay is described as follows: Displacement of [3H]DAMGO from mu opioid receptor expressed in CHO cells. It counts as cell-based.
For assay [8], the target named is T2, Kappa-type opioid receptor. The assay is described as follows: biochemical. It is filed as cell-based, CHO.
Description: Displacement of [3H]U-69593 from kappa opioid receptor expressed in CHO cells
The target of assay [9] is T1, Delta-type opioid receptor. The assay is described as follows: Displacement of [3H]naltrindole from delta opioid receptor expressed in CHO cells. It counts as cell-based. On the technique in general: In a radioligand displacement assay an active substance lowers the binding of a labelled ligand.
Assay [10] addresses T3, Mu-type opioid receptor. The assay can be described thus: Antagonist activity at human mu opioid receptor expressed in CHO cell membrane assessed as inhibition of DAMGO induced [35S]GTP-gamma-S binding at 10 uM. It is filed as functional, cell membranes.

T3 sequence (P35372 whole entry): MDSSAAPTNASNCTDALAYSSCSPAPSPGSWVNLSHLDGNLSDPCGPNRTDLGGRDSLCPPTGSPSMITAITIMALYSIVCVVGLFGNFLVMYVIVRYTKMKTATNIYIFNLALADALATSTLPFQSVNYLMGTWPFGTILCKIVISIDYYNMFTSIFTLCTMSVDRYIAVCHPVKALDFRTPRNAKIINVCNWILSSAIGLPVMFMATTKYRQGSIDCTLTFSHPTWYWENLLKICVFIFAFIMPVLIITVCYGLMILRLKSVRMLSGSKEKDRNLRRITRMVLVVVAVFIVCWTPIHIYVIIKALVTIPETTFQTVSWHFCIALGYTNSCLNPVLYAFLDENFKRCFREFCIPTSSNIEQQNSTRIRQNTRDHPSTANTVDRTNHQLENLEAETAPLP
T1 sequence (P41143 whole entry): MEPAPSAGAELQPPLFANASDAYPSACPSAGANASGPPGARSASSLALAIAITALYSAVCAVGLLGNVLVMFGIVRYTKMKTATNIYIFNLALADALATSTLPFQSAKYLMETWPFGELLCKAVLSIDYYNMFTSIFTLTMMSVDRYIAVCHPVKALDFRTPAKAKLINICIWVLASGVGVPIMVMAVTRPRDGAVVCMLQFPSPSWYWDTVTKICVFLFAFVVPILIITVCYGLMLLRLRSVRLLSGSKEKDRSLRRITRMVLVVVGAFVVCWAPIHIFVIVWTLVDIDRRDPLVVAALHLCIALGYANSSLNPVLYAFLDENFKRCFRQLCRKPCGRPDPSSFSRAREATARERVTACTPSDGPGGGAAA
T2 sequence (P41145 whole entry): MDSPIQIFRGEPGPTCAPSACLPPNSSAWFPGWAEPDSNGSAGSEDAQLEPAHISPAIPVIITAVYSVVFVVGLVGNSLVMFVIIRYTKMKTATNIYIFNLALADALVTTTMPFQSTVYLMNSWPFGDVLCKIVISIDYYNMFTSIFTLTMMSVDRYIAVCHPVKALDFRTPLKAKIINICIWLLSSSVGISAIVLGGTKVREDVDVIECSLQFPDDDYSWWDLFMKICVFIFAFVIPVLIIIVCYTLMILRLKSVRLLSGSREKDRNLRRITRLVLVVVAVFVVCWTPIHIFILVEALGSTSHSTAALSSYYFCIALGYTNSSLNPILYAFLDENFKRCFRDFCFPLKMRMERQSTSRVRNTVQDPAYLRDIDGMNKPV

For `COc1ccc(-c2ccc(CCNC(=O)c3ccc4c(c3)[C@@]3(C)CCN(CC5CC5)C(C4)[C@@H]3C)cc2)cc1`, the figures for the EC50 (in [1]; at Mu-type opioid receptor [4]; in [5]) were 0.68 nM, 11 nM and 1.1 nM, respectively. Moreover, the maximum response (Emax) in assay [1] turned out to be 70%; on Mu-type opioid receptor [4] it was 27%; in assay [5], 98%. The result in [2] and in assay [3] was inactive. The IC50 on Mu-type opioid receptor [6] was determined as 24 nM. Further, at Mu-type opioid receptor [6], the Imax was 82%.
In the case of `C[C@H]1C2Cc3ccc(C(=O)NCCCc4cccc5ccccc45)cc3[C@@]1(C)CCN2CC1CC1`, the results for the inhibition constant Ki (on Mu-type opioid receptor [7]; in [8]; in [9]) were 2.4 nM, 1.9 nM and 18 nM, respectively.
As to `C[C@H]1C2Cc3ccc(C(=O)NCCc4ccc(-c5ccc(Cl)cc5)cc4)cc3[C@@]1(C)CCN2CC1CC1`, the results for the EC50 (in assay [1]; at Mu-type opioid receptor [4]; in [5]) were 2 nM, 2.5 nM and 6.4 nM, respectively. In addition, the Emax was 45% in [1], 31% on Mu-type opioid receptor [4] and 96% in assay [5]. Moreover, the outcome (in [2]; in assay [3]; at Mu-type opioid receptor [6]) was inactive. Also, at Mu-type opioid receptor [10], the Imax came to 71%.
Consider `C[C@H]1C2Cc3ccc(C(=O)NCCc4cccc(Br)c4)cc3[C@@]1(C)CCN2CC1CC1`, for which the figures for the Ki (on Mu-type opioid receptor [7]; in [8]; in [9]) were 0.35 nM, 0.063 nM and 3.5 nM, respectively. Further, the EC50 in assay [1] came out at 14 nM; on Mu-type opioid receptor [4] it was 5.6 nM; in assay [5], 4.6 nM. Further, the values for the Emax (in assay [1]; on Mu-type opioid receptor [4]; in assay [5]) were 85%, 24% and 110%, respectively. Further, the outcome in assay [2] and in [3] was inactive. On Mu-type opioid receptor [6], the 50% inhibitory concentration (IC50) is 230 nM. For the same molecule, the Imax at Mu-type opioid receptor [6] worked out at 85%.
In the case of `C[C@H]1C2Cc3ccc(C(=O)NCCc4ccc5ccccc5c4)cc3[C@@]1(C)CCN2CC1CC1`, the inhibitory constant (Ki) stood at 0.18 nM at Mu-type opioid receptor [7], 0.2 nM in assay [8] and 0.9 nM in assay [9].
For `C[C@H]1C2Cc3ccc(C(=O)NCCc4ccccc4Br)cc3[C@@]1(C)CCN2CC1CC1`, the Ki at Mu-type opioid receptor [7] came to 4 nM; in assay [8], 19 nM; in [9], 150 nM.
Regarding `C[C@H]1C2Cc3ccc(C(=O)NCc4cccc5ccccc45)cc3[C@@]1(C)CCN2CC1CC1`, the inhibition constant Ki on Mu-type opioid receptor [7] was 2.5 nM; in assay [8] it was 18 nM; in [9], 52 nM.
Take `C[C@H]1C2Cc3ccc(C(=O)NCc4ccc5ccccc5c4)cc3[C@@]1(C)CCN2CC1CC1`: the figures for the inhibition constant (Ki) (on Mu-type opioid receptor [7]; in assay [8]; in assay [9]) were 1.3 nM, 19 nM and 31 nM, respectively.
The matching figures for `C[C@H]1C2Cc3ccc(C(=O)NCCc4cccc5ccccc45)cc3[C@@]1(C)CCN2CC1CC1`: 4.2 nM, 2.4 nM and 24 nM.
`C[C@H]1C2Cc3ccc(C(=O)NCCCc4ccc5ccccc5c4)cc3[C@@]1(C)CCN2CC1CC1`: the figures for the Ki (on Mu-type opioid receptor [7]; in [8]; in assay [9]) were 1.9 nM, 0.18 nM and 18 nM, respectively. For the same molecule, the result in [3] was inactive. Besides, the EC50 on Mu-type opioid receptor [4] turned out to be 24 nM; in assay [5], 6.3 nM. In addition, the Emax on Mu-type opioid receptor [4] is 31%; in [5] it was 98%. For the same molecule, the IC50 on Mu-type opioid receptor [6] stood at 320 nM. In addition, the Imax on Mu-type opioid receptor [6] came to 78%.
In the case of `C[C@H]1[C@H]2Cc3ccc(O)cc3[C@@]1(C)CCN2CC1CC1`, the Ki was found to be 0.07 nM in assay [8] and 2 nM in assay [9].
Take `C[C@H]1C2Cc3ccc(C(=O)NCCc4ccccc4-c4ccccc4)cc3[C@@]1(C)CCN2CC1CC1`: the Ki at Mu-type opioid receptor [7] turned out to be 6.7 nM; in assay [8], 2.4 nM; in assay [9] it was 21 nM. In addition, on Mu-type opioid receptor [10], the Imax was determined as 73%. Besides, the EC50 is 12 nM at Mu-type opioid receptor [4] and 42 nM in assay [5]. The Emax at Mu-type opioid receptor [4] was found to be 36%; in [5], 97%.
As for `C[C@H]1C2Cc3ccc(C(=O)NCCc4ccc(-c5ccc(Cl)c(Cl)c5)cc4)cc3[C@@]1(C)CCN2CC1CC1`, the values for the inhibition constant Ki (at Mu-type opioid receptor [7]; in [8]; in assay [9]) were 0.98 nM, 1.1 nM and 2.5 nM, respectively.
As to `C[C@H]1C2Cc3ccc(C(=O)NCCc4ccc(Br)cc4)cc3[C@@]1(C)CCN2CC1CC1`, the Ki on Mu-type opioid receptor [7] was 2.4 nM; in assay [8] it was 0.38 nM; in [9] it was 2.5 nM. The EC50 in assay [1] worked out at 20 nM; at Mu-type opioid receptor [4], 16 nM; in assay [5] it was 20 nM. The maximum response (Emax) in assay [1] was determined as 120%; on Mu-type opioid receptor [4] it was 73%; in assay [5], 110%. The result (in assay [2]; in [3]; at Mu-type opioid receptor [6]) was inactive.
On to `C[C@H]1C2Cc3ccc(C(=O)NCCc4cccc(-c5ccccc5)c4)cc3[C@@]1(C)CCN2CC1CC1`, for which the inhibition constant Ki at Mu-type opioid receptor [7] is 0.95 nM; in assay [9], 5.9 nM. For the same molecule, the EC50 came out at 18 nM in [1], 6.8 nM on Mu-type opioid receptor [4] and 12 nM in assay [5]. Moreover, the maximal effect (Emax) in [1] was 43%; on Mu-type opioid receptor [4], 41%; in [5], 95%. Besides, the result (in assay [2]; in assay [3]; at Mu-type opioid receptor [6]) was inactive. At Mu-type opioid receptor [10], the Imax is 72%.

As usually defined, the EC50 is the concentration needed to bring the measured effect to its halfway point. What is called Emax is the greatest response seen or fitted, relative to the assay's reference. One may read the IC50 as the concentration that gives 50% inhibition. As a reminder, the Ki is the dissociation constant of the complex between target and ligand, obtained from inhibition or displacement. A high value points to a looser hold on the target.
